{
  "source": "patent US5116949A",
  "about": "“Benzoyl urea compound-albumin complex” (Ishihara Sangyo Kaisha Ltd., priority 1988, dated 1992)",
  "assay": "Solubility in distilled water for injection drug",
  "type": "physicochemical",
  "settings": "Compound 3 alone, read-out: Solubility (as Compound 3)",
  "data": [
    {"smiles": "O=C(NC(=O)c1ccccc1[N+](=O)[O-])Nc1ccc(Oc2ncc(Br)cn2)c(Cl)c1", "note": "[Compound 3]", "values": [
      {"measurement": "solubility", "result": 0.024, "unit": "µg/mL"}
    ]}
  ]
}
